# Laboratory results reported in BindingDB's records for PubMed 39481228 (Anhui Medical University).
# Key:
# Cholinesterase [1] = target: T1, Cholinesterase (Homo sapiens, UniProt P06276); assay: Binding affinity to human BuChE (unknown origin) assessed as overall carbamolyation rate at 0.025 to 100 uM incubated for 60 mins
# Cholinesterase [2] = target: T1, Cholinesterase; assay: Binding affinity to human BuChE (unknown origin) assessed as overall carbamolyation rate at 100 to 1000 nM incubated for 60 mins
# T1 sequence (P06276 whole entry): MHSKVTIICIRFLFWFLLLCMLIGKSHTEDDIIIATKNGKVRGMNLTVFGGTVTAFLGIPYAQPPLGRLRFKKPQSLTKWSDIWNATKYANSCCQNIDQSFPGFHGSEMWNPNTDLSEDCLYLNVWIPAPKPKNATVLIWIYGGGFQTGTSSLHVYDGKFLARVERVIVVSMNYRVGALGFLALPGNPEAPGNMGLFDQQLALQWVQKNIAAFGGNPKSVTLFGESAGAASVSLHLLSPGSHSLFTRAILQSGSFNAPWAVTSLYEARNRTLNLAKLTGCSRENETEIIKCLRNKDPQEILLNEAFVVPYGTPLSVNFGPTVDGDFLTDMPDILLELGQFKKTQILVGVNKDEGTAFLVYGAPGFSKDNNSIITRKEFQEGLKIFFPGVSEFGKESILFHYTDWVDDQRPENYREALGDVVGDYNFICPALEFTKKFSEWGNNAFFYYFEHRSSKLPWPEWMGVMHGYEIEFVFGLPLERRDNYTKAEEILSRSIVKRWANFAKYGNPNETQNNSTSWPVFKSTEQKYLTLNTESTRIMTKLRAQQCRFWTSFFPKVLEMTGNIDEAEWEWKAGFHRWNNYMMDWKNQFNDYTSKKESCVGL
SMILES,Ki (Cholinesterase [1]) [nM],Ki (Cholinesterase [2]) [nM]
COc1ccc(C(C)=O)c(OC(=O)N2CCCCC2)c1,0.31,–
COc1ccc(C(C)=O)c(OC(=O)N(C)Cc2ccc(F)cc2)c1,–,2.8
